# “And” between values parts separate entries of the source, which are not always exact repeats. Equal entries are not always repeated. Where two headings read alike, the source gives them in different places.
# Tests used:
# UGT2B7 [1] = biological target: T1, UGT2B7 (Homo sapiens, UniProt P16662); design: method as in PMID 24631340; settings: non-competitive inhibition; read-out: inhibition constant (Ki) for ZDV glucuronidation in HLM; cited from earlier work
# T1 sequence (P16662 24-529): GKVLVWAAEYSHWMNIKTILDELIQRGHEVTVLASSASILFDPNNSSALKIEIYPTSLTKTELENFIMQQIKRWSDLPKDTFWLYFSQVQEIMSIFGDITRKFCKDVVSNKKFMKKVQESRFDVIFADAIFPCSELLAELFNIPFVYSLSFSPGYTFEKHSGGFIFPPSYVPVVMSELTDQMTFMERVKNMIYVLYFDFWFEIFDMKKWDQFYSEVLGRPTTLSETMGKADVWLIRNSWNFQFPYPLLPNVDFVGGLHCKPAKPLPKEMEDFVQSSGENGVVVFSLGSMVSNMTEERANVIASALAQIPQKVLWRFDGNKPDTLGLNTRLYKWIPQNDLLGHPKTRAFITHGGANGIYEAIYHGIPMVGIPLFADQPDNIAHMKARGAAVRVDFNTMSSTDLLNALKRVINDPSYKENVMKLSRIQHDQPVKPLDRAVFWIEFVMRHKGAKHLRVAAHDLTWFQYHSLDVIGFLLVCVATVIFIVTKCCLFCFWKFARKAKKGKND
# UGT enzymes = settings: cited from earlier work; for inhibition of UGT enzymes in HLM with 4MU as substrate (in words): 4MU nonspecific UGT substrate
# [2] = cited from earlier work; for maximum plasma concentration: humans
# HLM = system: HLM; design: method as in PMID 25204783; settings: cited from earlier work
# UGT2B7 [3] = settings: cited from earlier work; for effect on UGT2B7 in vitro (in words): 19 (curcumin), 37, 70 (ketamine), 19, 20, 22, 23 (andrographolide); for UGT2B7, in vitro study: supersomes
# UGT nonspecific [4] = system: UGT nonspecific; design: method as in ref 19-24 (andrographolide); 35-37 (mitragynine); 26, 27, 29, 31, 38, 39 (quercetin); settings: rats; ref 19-24 (andrographolide); 35-37 (mitragynine); 26, 27, 29, 31, 38, 39 (quercetin); cited from earlier work
# UGT2B7 [5] = assay: Inhibition of ZDV glucuronidation in rat liver microsomes (RLM); settings: for IC50 at 90 min: rat
# Description: The livers were rinsed promptly with ice-cold distilled water followed by ice-cooled 67 mM potassium phosphate buffer (pH 7.4) containing 1.15% (w/v) KCl after removal from the rats. The livers were then homogenized in three volumes of the same buffer using Potter-Elvehjem homogenizer after blotted dry and weighed. After that, the homogenate was centrifuged at 12,500× g for 20 min at 4 °C. The resultant supernatant was further centrifuged at 100,000× g for 60 min at 4 °C to obtain the microsomal pellets. Each pellet obtained was scrapped and reconstituted in 0.3 mL of 67 mM potassium phosphate buffer with 1.15% (w/v) KCl and 20% (v/v) glycerol before homogenizing them together to obtain pooled microsomes. Microsomes were then transferred into several microfuge tubes and stored at −80 °C until used.
# (§1) An incubation mixture in a total volume of 200 µL contained 100 mM Tris-HCl buffer at pH 7.4, 5 mM MgCl2, microsomal protein (0.2 mg/mL for HLM assay and 2 mg/mL for RLM assay) and 0.1 mg/mg protein of Brij58 was kept in ice for 10 min. […] The incubation volume was made up to 200 µL with distilled water in a 1.5 mL polypropylene microcentrifuge tube. After pre-incubation at 37 °C for 10 min in a shaking water bath, a reaction was started by the addition of 5 mM UDPGA and was further incubated (120 min for HLM and 90 min for RLM). Following the incubation, the reaction was terminated by adding 100 µL ice-cold acetonitrile containing 75 µM of 4MUG as the internal standard (IS). The sample was allowed for protein precipitation on ice for 15 min, then vortexed shortly, and centrifuged at 15,000 rpm for 10 min at 4 °C. Supernatant was transferred into HPLC vials for HPLC analysis.
# Stock solutions for the herbal constituents were prepared at concentrations of 50 mM by dissolving them in their respective solvents. Andrographolide, arecoline, arecaidine, mangiferin and vanillin were dissolved in distilled water. […] Working solutions were prepared at concentrations of 5 mM in distilled water so that the final organic solvent concentrations in incubations were less than 2% (v/v).
# (§2) Thirteen herbal constituents were screened for inhibition of ZDV glucuronidation in HLM and RLM. Screening experiments using three concentrations (1 µM, 10 µM and 100 µM) of each herbal constituent were conducted to screen for the inhibitory potential of the constituent. All incubation assays were performed in triplicate (n = 3).
# The ZDVG concentration formed was quantified using the calibration curve of ZDVG. Final UGT2B7 specific activity value was expressed in pmol/min/mg protein.
# UGT2B7 [6] = biological target: T1, UGT2B7; assay: Inhibition of ZDV glucuronidation in human liver microsomes (HLM)
# Description: as §1
# Stock solutions for the herbal constituents were prepared at concentrations of 50 mM by dissolving them in their respective solvents. […] Working solutions were prepared at concentrations of 5 mM in distilled water so that the final organic solvent concentrations in incubations were less than 2% (v/v).
# as §2
# (§3) The ZDVG concentration formed was quantified using the calibration curve of ZDVG. Final UGT2B7 specific activity value was expressed in pmol/min/mg protein. […] Km and Vmax were determined using the same software under the enzyme-kinetic inhibition (substrate inhibition) model.
# UGT nonspecific [7] = system: UGT nonspecific; design: method as in ref 26-30 (kaempferol); 26, 27, 29, 31, 38, 39 (quercetin); settings: mammalian cells; ref 26-30 (kaempferol); 26, 27, 29, 31, 38, 39 (quercetin); cited from earlier work
# UGT1A1 [8] = system: UGT1A1; design: method as in ref 26-30 (kaempferol); 35-37 (mitragynine); 26, 27, 29, 31, 38, 39 (quercetin); settings: supersomes; ref 26-30 (kaempferol); 35-37 (mitragynine); 26, 27, 29, 31, 38, 39 (quercetin); cited from earlier work
# UGT1A1 [9] = system: UGT1A1; design: method as in ref 26-30 (kaempferol); 26, 27, 29, 31, 38, 39 (quercetin); settings: mammalian cells; ref 26-30 (kaempferol); 26, 27, 29, 31, 38, 39 (quercetin); cited from earlier work
# UGT1A3 = system: UGT1A3; design: method as in ref 19-24 (andrographolide); 26-30 (kaempferol); 32-34 (mangiferin); 26, 27, 29, 31, 38, 39 (quercetin); settings: supersomes; ref 19-24 (andrographolide); 26-30 (kaempferol); 32-34 (mangiferin); 26, 27, 29, 31, 38, 39 (quercetin); cited from earlier work
# UGT1A6 [10] = system: UGT1A6; design: method as in ref 19-24 (andrographolide); 26-30 (kaempferol); 32-34 (mangiferin); 26, 27, 29, 31, 38, 39 (quercetin); settings: supersomes; ref 19-24 (andrographolide); 26-30 (kaempferol); 32-34 (mangiferin); 26, 27, 29, 31, 38, 39 (quercetin); cited from earlier work
# UGT1A9 = settings: HLM, supersomes, cited from earlier work
# UGT2B10 = system: UGT2B10; design: method as in ref 26-30 (kaempferol); 26, 27, 29, 31, 38, 39 (quercetin); settings: supersomes; ref 26-30 (kaempferol); 26, 27, 29, 31, 38, 39 (quercetin); cited from earlier work
# UGT1A1 [11] = system: UGT1A1; design: method as in PMID 18001207, PMID 19889883, PMID 25008344, PMID 24553666, PMID 29574133; settings: mice; cited from earlier work
# UGT1A6 [12] = system: UGT1A6; design: method as in PMID 18001207, PMID 19889883, PMID 24553666, PMID 22958586, PMID 10660112; settings: mammalian cells; cited from earlier work
# UGT2B17 = settings: supersomes; ref 31 (gallic acid); 32-34 (mangiferin); 26, 27, 29, 31, 38, 39 (quercetin); cited from earlier work
# UGT nonspecific [13] = system: UGT nonspecific; design: method as in PMID 28479734; settings: system not given; cited from earlier work
# UGT2B7 [14] = system: UGT2B7; design: method as in PMID 29425147; settings: by inhibiting UGT2B7 activity; cited from earlier work
# [15] = system: gluthathione-S-transferases enzyme; design: method as in PMID 15304356; settings: in vitro; cited from earlier work
# CYP3A4 = system: CYP3A4; design: method as in PMID 15270556; settings: in vitro; cited from earlier work
# [16] = humans, cited from earlier work
# [17] = rats, cited from earlier work
# UGT2B7 [18] = biological target: T1, UGT2B7; assay: in vitro; settings: HLM; for microsomal CLint: human liver microsomes, pH 7.4, CLint, Vmax/Km; for Km at 120 min: pH 7.4, Km, mean ± SD
# Description: An incubation mixture in a total volume of 200 µL contained 100 mM Tris-HCl buffer at pH 7.4, 5 mM MgCl2, microsomal protein (0.2 mg/mL for HLM assay and 2 mg/mL for RLM assay) and 0.1 mg/mg protein of Brij58 was kept in ice for 10 min. […] The incubation volume was made up to 200 µL with distilled water in a 1.5 mL polypropylene microcentrifuge tube. After pre-incubation at 37 °C for 10 min in a shaking water bath, a reaction was started by the addition of 5 mM UDPGA and was further incubated (120 min for HLM and 90 min for RLM). […] The sample was allowed for protein precipitation on ice for 15 min, then vortexed shortly, and centrifuged at 15,000 rpm for 10 min at 4 °C. Supernatant was transferred into HPLC vials for HPLC analysis.
# Once the initial velocity conditions had been established, the ZDV concentrations were varied to generate a saturation curve for determination of Michaelis constant (Km) and maximal velocity of reaction (Vmax) values of ZDV glucuronidation in HLM and RLM. The experiments were conducted in the absence and presence of BSA. Under optimized conditions, substrate concentrations used in incubation assay were varied from 0–5 mM of ZDV for HLM assay and 0–30 mM of ZDV for RLM assay. All assays were performed in triplicates (n = 3).
# as §3
# UGT2B7 [19] = assay: ZDV glucuronidation kinetics in RLM; settings: for Km at 90 min / microsomal CLint: rat; for Km at 90 min: pH 7.4, Km; for microsomal CLint: rat liver microsomes (pooled), pH 7.4, CLint, Vmax/Km
# Description: as §1
# Once the initial velocity conditions had been established, the ZDV concentrations were varied to generate a saturation curve for determination of Michaelis constant (Km) and maximal velocity of reaction (Vmax) values of ZDV glucuronidation in HLM and RLM. The experiments were conducted in the absence and presence of BSA. Under optimized conditions, substrate concentrations used in incubation assay were varied from 0–5 mM of ZDV for HLM assay and 0–30 mM of ZDV for RLM assay. All assays were performed in triplicates (n = 3). The enzyme kinetic parameters (Km and Vmax) were obtained by fitting kinetic models to the experimental data using GraphPad Prism version 5.01 for Windows.
# as §3
# [20] = IC50 for inhibition of ZDV glucuronidation in HLM, human liver microsomes, ZDV as UGT2B7 probe substrate, 1% (w/v) BSA
# [21] = concentration showing 50% inhibition of ZDV glucuronidation in HLM (screening), screening at 1 µM, 10 µM and 100 µM
molecule,measurement,setting,value
"C=C1CC[C@@H]2[C@](C)(CO)[C@H](O)CC[C@@]2(C)[C@@H]1C/C=C1/C(=O)OC[C@H]1O [Andrographolide, andrographolide]",Ki,UGT2B7 [1],6.1 µM
same,inhibition of UGT enzymes in HLM with 4MU as substrate (in words),UGT enzymes,weak inhibition
same,maximum plasma concentration,[2]; oral 20 mg of andrographolide four times a day,1.34 µg/mL and 3.8 µM
same,maximum concentration in plasma,[2]; ingestion of 32.64 mg of andrographolide three times a day,32.41 ng/mL and 0.09 µM
same,maximum concentration in plasma,[2]; ingestion of 200 mg of andrographolide three times a day,58.6 ng/mL and 0.17 µM
same,glucuronidation as a substrate in HLM (in words),HLM,glucuronidated
same,effect on UGT2B7 in vitro (in words),UGT2B7 [3],inhibit
same,"UGT2B7, in vitro study",UGT2B7 [3]; HLM,"UGT2B7 ↓ (HLM, supersomes)"
same,"UGT nonspecific, in vivo/ex vivo study",UGT nonspecific [4],UGT nonspecific ↑ (rats)
same,inhibition of ZDV glucuronidation in RLM (in words),UGT2B7 [5]; rat liver microsomes,weak inhibition
same,IC50,UGT2B7 [6]; [20],6.18 ± 1.27 µM
same,IC50,UGT2B7 [6]; [21],< 100 µM
O=c1c(O)c(-c2ccc(O)cc2)oc2cc(O)cc(O)c12 [Kaempferol],"UGT nonspecific, in vitro study",UGT nonspecific [7],UGT nonspecific ↑ (mammalian cells)
same,"UGT1A1, in vitro study",UGT1A1 [8],UGT1A1 ↓ (supersomes)
same,"UGT1A1, in vitro study",UGT1A1 [9],UGT1A1 ↑ (mammalian cells)
same,"UGT1A3, in vitro study",UGT1A3,UGT1A3 ↓ (supersomes)
same,"UGT1A6, in vitro study",UGT1A6 [10],UGT1A6 ↓ (supersomes)
same,"UGT1A9, in vitro study",UGT1A9; HIM,"UGT1A9 ↓ (HLM, HIM, supersomes)"
same,"UGT2B7, in vitro study","UGT2B7 [3]; ref 26-30 (kaempferol), 35-37 (mitragynine)",UGT2B7 ↓ (supersomes)
same,"UGT2B10, in vitro study",UGT2B10,UGT2B10 ↓ (supersomes)
same,"UGT1A1, in vivo/ex vivo study",UGT1A1 [11],UGT1A1 ↑ (mice)
"O=c1c(O)c(-c2ccc(O)c(O)c2)oc2cc(O)cc(O)c12 [Quercetin, quercetin]","UGT nonspecific, in vitro study",UGT nonspecific [7],UGT nonspecific ↑ (mammalian cells)
same,"UGT1A1, in vitro study",UGT1A1 [8],UGT1A1 ↓ (supersomes)
same,"UGT1A1, in vitro study",UGT1A1 [9],UGT1A1 ↑ (mammalian cells)
same,"UGT1A3, in vitro study",UGT1A3,UGT1A3 ↓ (supersomes)
same,"UGT1A6, in vitro study",UGT1A6 [12],UGT1A6 ↑ (mammalian cells)
same,"UGT1A9, in vitro study",UGT1A9; RLM,"UGT1A9 ↓ (HLM, RLM, supersomes)"
same,"UGT2B17, in vitro study",UGT2B17,UGT2B17 ↓ (supersomes)
same,"UGT nonspecific, in vivo/ex vivo study",UGT nonspecific [4],UGT nonspecific ↑ (rat)
COc1cc(C=O)ccc1O [Vanillin],"UGT nonspecific, in vitro study",UGT nonspecific [13],UGT nonspecific ↓
"CNC1(c2ccccc2Cl)CCCCC1=O (stereo not drawn) [ketamine, reference compound]",effect on UGT2B7 in vitro (in words),UGT2B7 [3],inhibit
CCC1CN2CCc3c([nH]c4cccc(OC)c34)C2CC1/C(=C\OC)C(=O)OC (stereo not drawn) [mitragynine],inhibition of 4MU glucuronidation in HLM,UGT enzymes; at a concentration of 1 μM,approximately 30 % of control activity
same,IC50,UGT enzymes; read-out: IC50 for 4MU glucuronidation in HLM,> 1000 µM
same,maximum plasma concentration,[2]; M. speciosa tea with 11 mg mitragynine for seven days then 23 mg on the eighth day,0.105 µg/mL and 0.26 µM
same,"UGT nonspecific, in vivo/ex vivo study",UGT nonspecific [4],UGT nonspecific ↑ (rats)
same,IC50 at 90 min,"UGT2B7 [5]; pH 7.4, IC50 for inhibition of ZDV glucuronidation in RLM, rat liver microsomes, ZDV as probe substrate, 1% (w/v) BSA",51.2 ± 5.95 µM
same,IC50 at 90 min,"UGT2B7 [5]; pH 7.4, concentration inhibiting ZDV glucuronidation in RLM higher than 50% (screening), screening at 1 µM, 10 µM and 100 µM",< 100 µM
same,IC50,UGT2B7 [6]; [20],8.11 ± 4.48 µM
same,IC50,UGT2B7 [6]; [21],< 100 µM
C[C@@H]1[C@H]2c3cc4c(cc3O[C@@]35OCOC3=CC(=O)[C@H](C[C@H]1C)[C@@H]25)OCO4 [sauchinone],effect on zidovudine (ZDV) concentration in mice blood (in words),UGT2B7 [14],elevated
C/C1=C\CC(C)(C)/C=C/C(=O)/C(C)=C/CC1 [zerumbone],effect on Phase II gluthathione-S-transferases enzyme (in words),[15],induce
same,effect on metabolism mediated by CYP3A4 (in words),CYP3A4,moderately inhibit
same,IC50 at 90 min,"UGT2B7 [5]; rat liver microsomes (pooled), pH 7.4, probe zidovudine (ZDV), at or below its Km, IC50 for inhibition of ZDV glucuronidation in RLM, rat liver microsomes, ZDV as probe substrate, 1% (w/v) BSA",8.14 ± 2.12 µM
same,IC50 at 90 min,"UGT2B7 [5]; rat liver microsomes (pooled), pH 7.4, probe zidovudine (ZDV), at or below its Km, concentration inhibiting ZDV glucuronidation in RLM higher than 50% (screening), screening at 1 µM, 10 µM and 100 µM",< 100 µM
same,IC50,UGT2B7 [6]; [20],4.57 ± 0.23 µM
same,IC50,UGT2B7 [6]; [21],< 100 µM
"Cc1cn([C@H]2C[C@H](N=[N+]=[N-])[C@@H](CO)O2)c(=O)[nH]c1=O [zidovudine, 3′-Azido-3′-deoxythymidine]",in vivo systemic clearance,[16]; for 70 kg of man,16.8 mL/min/kg
same,dose excreted as glucuronides,[16],approximately 75%
same,in vivo systemic clearance,[17]; for 0.25 kg of rat,3 mL/min/kg
same,dose excreted as glucuronides,[17],~10%
same,microsomal CLint,UGT2B7 [18]; with 1% BSA,1.65 µL/min/mg
same,microsomal CLint,UGT2B7 [18]; without 1% BSA,0.32 µL/min/mg
same,Km at 120 min,UGT2B7 [18]; with 1% BSA,0.88 ± 0.05 mM
same,Km at 120 min,UGT2B7 [18]; without 1% BSA,3.4 ± 0.7 mM
same,Km at 90 min,"UGT2B7 [19]; with 1% BSA, mean ± SD",6.77 ± 0.6 mM
same,Km at 90 min,"UGT2B7 [19]; without 1% BSA, mean ± SD",8.84 ± 1.19 mM
same,microsomal CLint,UGT2B7 [19]; with 1% BSA,0.16 µL/min/mg
same,microsomal CLint,UGT2B7 [19]; without 1% BSA,0.09 µL/min/mg
same,Vmax,"UGT2B7 [19]; without 1% BSA, mean ± SD",770 ± 39.82 pmol/mg/min
kaempferol-3-O-rutinoside [kaempferol-3-rutinoside],inhibition of UGT enzymes in HLM with 4MU as substrate (in words),UGT enzymes,did not significantly inhibit

# Source: PMC6222696, “Inhibition of UGT2B7 Enzyme Activity in Human and Rat Liver Microsomes by Herbal Constituents” (Molecules : A Journal of Synthetic Chemistry and Natural …, 2018)
